# Results from US20170334899A1, “AMINO-SUBSTITUTED ISOTHIAZOLES” (Bayer Pharma Aktiengesellschaft, priority 2014, published 2017).
# Tested on: HeLa
# Test: Proliferation assay (crystal violet), HeLa
# Assay type: cell-based
# Conditions: Homo sapiens, HeLa, 96 h, HeLa cells; 4 days incubation; crystal violet staining; read-out: IC50 inhibition of proliferation, HeLa
# How it was run: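 Seed 1000–5000 cells/well, 10% FCS; 24 h later replace medium and add compound (0.001–10 μM, 0.5% DMSO); incubate 4 d; glutaraldehyde fix, 0.1% crystal violet pH 3.0, elute with 10% acetic acid; A595; 4-parameter IC50.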
row,Structure (SMILES),IC50
1,"Cc1nsc(Nc2cnc(C(F)(F)F)cn2)c1C(=O)Nc1ccc(OC2CCN(CC(F)F)C2)nc1 (stereo not shown) [Example 296, N-(6-{[1-(2,2-difluoroethyl)pyrrolidin-3-yl]oxy}pyridin-3-yl)-3-methyl-5-{[5-(trifluoromethyl)pyrazin-2-yl]amino}-1,2-thiazole-4-carboxamide]",600 nM
2,"Cc1nsc(Nc2cc(C#N)ccn2)c1C(=O)Nc1ccc(OC2CCNCC2)nc1 [Example 24, 5-[(4-Cyanopyridin-2-yl)amino]-3-methyl-N-[6-(piperidin-4-yloxy)pyridin-3-yl]-1,2-thiazole-4-carboxamide]",10000 nM
3,"Cc1nsc(Nc2cc(C#N)ccn2)c1C(=O)Nc1ccc(OC2CCN(CC(F)F)CC2)nc1 [Example 263, 5-[(4-cyanopyridin-2-yl)amino]-N-(6-{[1-(2,2-difluoroethyl)piperidin-4-yl]oxy}pyridin-3-yl)-3-methyl-1,2-thiazole-4-carboxamide]",3200 nM
4,"Cc1nsc(Nc2cnc(C(F)(F)F)cn2)c1C(=O)Nc1ccc(F)c(OCC2CCN(C(CF)CF)CC2)c1 [Example 312, N-(3-{[1-(1,3-difluoropropan-2-yl)piperidin-4-yl]methoxy}-4-fluorophenyl)-3-methyl-5-{[5-(trifluoromethyl)pyrazin-2-yl]amino}-1,2-thiazole-4-carboxamide]",420 nM
5,"Cc1nsc(Nc2cnc3ccccc3n2)c1C(=O)Nc1cccc(NS(=O)(=O)C2CCCN(C(=O)OCc3ccccc3)C2)c1 (stereo not shown) [Example 291, benzyl 3-{[3-({[3-methyl-5-(quinoxalin-2-ylamino)-1,2-thiazol-4-yl]carbonyl}amino)phenyl]sulfamoyl} piperidine-1-carboxylate]",8900 nM
6,"Cc1nsc(Nc2cnc(C(F)(F)F)cn2)c1C(=O)Nc1cccc(NC(=O)OC(C)(C)C)c1 [Example 284, 3-tert-butyl (3-{[(3-methyl-5-{[5-(trifluoromethyl)pyrazin-2-yl]amino}-1,2-thiazol-4-yl)carbonyl]amino}phenyl)carbamate]",540 nM
7,"Cc1nsc(Nc2cnc(C(F)(F)F)cn2)c1C(=O)Nc1ccc(OCCCNCC(F)F)nc1 [Example 293, N-(6-{3-[(2,2-difluoroethyl)amino]propoxy}pyridin-3-yl)-3-methyl-5-{[5-(trifluoromethyl)pyrazin-2-yl]amino}-1,2-thiazole-4-carboxamide]",5300 nM
8,"Cc1nsc(Nc2cnc3ccccc3n2)c1C(=O)Nc1cccc(NS(=O)(=O)C2CN(CCF)C2)c1 [Example 287, N-[3-({[1-(2-fluoroethyl)azetidin-3-yl]sulfonyl}amino)phenyl]-3-methyl-5-(quinoxalin-2-ylamino)-1,2-thiazole-4-carboxamide]",9900 nM
9,"Cc1nsc(Nc2ccc(C#N)cn2)c1C(=O)Nc1cccc(C(=O)NC(C)C)c1 [Example 255, 5-[(5-cyanopyridin-2-yl)amino]-N-[3-(isopropylcarbamoyl)phenyl]-3-methyl-1,2-thiazole-4-carboxamide]",6100 nM
10,"CCN1CCN(C(=O)c2ccc(NC(=O)c3c(C)nsc3Nc3cncc(C(F)(F)F)n3)cc2)CC1 [Example 275, N-{4-[(4-ethylpiperazin-1-yl)carbonyl]phenyl}-3-methyl-5-{[6-(trifluoromethyl)pyrazin-2-yl]amino}-1,2-thiazole-4-carboxamide]",> 10000 nM
11,"CCNC(=O)c1cccc(NC(=O)c2c(C)nsc2Nc2cnc3ccccc3n2)c1 [Example 251, N-[3-(ethylcarbamoyl)phenyl]-3-methyl-5-(quinoxalin-2-ylamino)-1,2-thiazole-4-carboxamide]",4500 nM
12,"Cc1nsc(Nc2ccc(C#N)cn2)c1C(=O)Nc1cccc(C(=O)NC2CC2)c1 [Example 250, 5-[(5-cyanopyridin-2-yl)amino]-N-[3-(cyclopropylcarbamoyl)phenyl]-3-methyl-1,2-thiazole-4-carboxamide]",> 10000 nM
13,"Cc1nsc(Nc2cnc(C(F)(F)F)cn2)c1C(=O)Nc1ccc(F)c(OCC2CCN(CC(F)(F)F)CC2)c1 [Example 310, N-(4-fluoro-3-{[1-(2,2,2-trifluoroethyl)piperidin-4-yl]methoxy}phenyl)-3-methyl-5-{[5-(trifluoromethyl)pyrazin-2-yl]amino}-1,2-thiazole-4-carboxamide]",230 nM
14,"Cc1nsc(Nc2cnc(C(F)(F)F)cn2)c1C(=O)Nc1ccc(F)c(OCCCN(C)CC(F)(F)F)c1 [Example 302, N-(4-fluoro-3-{3-[methyl(2,2,2-trifluoroethyl)amino]propoxy}phenyl)-3-methyl-5-{[5-(trifluoromethyl)pyrazin-2-yl]amino}-1,2-thiazole-4-carboxamide]",340 nM
15,"Cc1nsc(Nc2cnc(C(F)(F)F)cn2)c1C(=O)Nc1ccc(OCCCO)nc1 [Example 279, N-[6-(3-hydroxypropoxy)pyridin-3-yl]-3-methyl-5-{[5-(trifluoromethyl)pyrazin-2-yl]amino}-1,2-thiazole-4-carboxamide]",2200 nM
16,"COC(=O)CCCc1ccc(NC(=O)c2c(C)nsc2Nc2cc(C#N)ccn2)cc1 [Example 256, methyl 4-{4-[({5-[(4-cyanopyridin-2-yl)amino]-3-methyl-1,2-thiazol-4-yl}carbonyl)amino]phenyl}butanoate]",> 10000 nM
17,"Cc1nsc(Nc2cnc(C(F)(F)F)cn2)c1C(=O)Nc1ccc(F)c(OCC2CCN(CCC(F)(F)F)CC2)c1 [Example 311, N-(4-fluoro-3-{[1-(3,3,3-trifluoropropyl)piperidin-4-yl]methoxy}phenyl)-3-methyl-5-{[5-(trifluoromethyl)pyrazin-2-yl]amino}-1,2-thiazole-4-carboxamide]",330 nM
18,"Cc1nsc(Nc2cnc(C(F)(F)F)cn2)c1C(=O)Nc1ccc(OCCNCC(F)(F)F)nc1 [Example 322, 3-methyl-N-(6-{2-[(2,2,2-trifluoroethyl)amino]ethoxy}pyridin-3-yl)-5-{[5-(trifluoromethyl)pyrazin-2-yl]amino}-1,2-thiazole-4-carboxamide]",690 nM
19,"CCN1CCN(C(=O)c2ccc(NC(=O)c3c(C)nsc3Nc3cnc(C(F)(F)F)cn3)cc2)CC1 [Example 261, N-{4-[(4-ethylpiperazin-1-yl)carbonyl]phenyl}-3-methyl-5-{[5-(trifluoromethyl)pyrazin-2-yl]amino}-1,2-thiazole-4-carboxamide]",4800 nM
20,"Cc1nsc(Nc2cnc(C(F)(F)F)cn2)c1C(=O)Nc1ccc(F)c(OC2CCN(CC(F)F)CC2)c1 [Example 265, N-(3-{[1-(2,2-difluoroethyl)piperidin-4-yl]oxy}-4-fluorophenyl)-3-methyl-5-{[5-(trifluoromethyl)pyrazin-2-yl]amino}-1,2-thiazole-4-carboxamide]",320 nM
21,"Cc1nsc(Nc2cnc(C(F)(F)F)cn2)c1C(=O)Nc1ccc(N(C)C)c(OCCCN(C)CC(F)(F)F)c1 [Example 299, N-[4-(dimethylamino)-3-{3-[methyl(2,2,2-trifluoroethyl)amino]propoxy}phenyl]-3-methyl-5-{[5-(trifluoromethyl)pyrazin-2-yl]amino}-1,2-thiazole-4-carboxamide]",260 nM
22,"Cc1nsc(Nc2cnc(C(F)(F)F)cn2)c1C(=O)Nc1ccc(OC2CCN(CCF)C2)nc1 (stereo not shown) [Example 295, N-(6-{[1-(2-fluoroethyl)pyrrolidin-3-yl]oxy}pyridin-3-yl)-3-methyl-5-{[5-(trifluoromethyl)pyrazin-2-yl]amino}-1,2-thiazole-4-carboxamide]",380 nM
